Tests used:
[1] = tested on: TGFβ1-induced expression of α-SMA protein in human intestinal fibroblasts (InMyoFib); assay: α-SMA ELISA in TGFβ1-activated human intestinal myofibroblasts; format: cell-based; details: TGFβ1 3 ng/ml, 48 h
Procedure: (§1) Cpd.5 was added to serum-deprived intestinal fibroblasts (InMyoFib) 1 hour before the activation with TGFβ1 (3 ng/ml). After 48 hours of incubation, the expression of α-SMA was measured by ELISA. The obtained values were transformed into percentage inhibition over TGFβ1 control. Data are presented as mean (triplicates)±standard deviation (SD). Statistical analyses were performed by one-way ANOVA followed by Bonferroni post-hoc tests, using Sigma Plot 11.0 software. [*: p<0.05; **: p<0.01; ***: p<0.001 (comparison versus TGFβ1 3 ng/mL group)].
The Human Intestinal Myofibroblast (InMyoFib) (Lonza) were cultured in Smooth Muscle Cell Basal Medium (SmBM-2 TM) (Lonza cat #CC-3181) that was supplemented with SmGMTM-2 BulletKit TM (Lonza cat #CC-4149). The complete medium contains 5% fetal bovine serum. For the activation experiments with TGFβ1, the inMyoFib were plated at a density of 10×10^3 cells per well in 96-well plates. The next day, cell-culture medium was removed, and cells were washed with PBS (Invitrogen cat #14190). InMyoFib were deprived for 24 hours in serum-free, insulin-free and rhFGF-B-free medium. […]
(§2) The level of α-SMA was measured using a Sandwich ELISA. […]

[2] = tested on: TGFβ1-induced expression of α-SMA protein in human cardiac fibroblasts (NHCF); assay: α-SMA ELISA in TGFβ1-activated normal human cardiac fibroblasts; format: cell-based; details: TGFβ1 3 ng/ml, 48 h
Procedure: as §1, with “cardiac” for “intestinal”, “(NHCF)” for “(InMyoFib)”
The Normal Human Cardiac Fibroblasts (ventricle) (NHCF-V) (Lonza) were isolated from normal, adult heart tissue. Cells were cultured in Fibroblast Basal Medium (FBM) (Lonza cat #CC-3131) that was supplemented with FGM™-3 BulletKit™ kit (Lonza cat #CC-4525). The complete medium contains 10% fetal bovine serum. For the activation experiments with TGFβ1, the NHCF-V were plated at a density of 6×10^3 cells per well in 96-well plates. The next day, cell-culture medium was removed, and cells were washed with PBS (Invitrogen cat #14190). NHCF were deprived for 24 hours in serum-free, insulin-free and rhFGF-B-free medium. […]
as §2

[2H]C([2H])([2H])C(=O)Oc1ccccc1C(=O)Nc1ncc([N+](=O)[O-])s1 [Cpd.5, 2-[(5-nitro-1,3-thiazol-2-yl)carbamoyl]phenyl (d3)ethanoate]
effect on TGFβ1-induced α-SMA in human intestinal fibroblasts [1]: inhibits | effect on TGFβ1-induced α-SMA in human cardiac fibroblasts [2]: inhibits
